Test results: patent US20060040876A1, “Modulation of peroxisome proliferator-activated receptors” (priority 2004, published 2006)

Key:
[1] = system: 15-keto prostaglandin-Δ^13-reductase; test: 15-keto prostaglandin-Δ^13-reductase inhibition assay; assay type: biochemical; conditions: different concentrations of inhibitor, incubated 2 hours at 37° C.
Experimental: Enzymatic activity was determined as follows. 10 μg of the recombinant mouse PGR-2 protein was incubated at 37° C. in a reaction buffer containing 0.1M Tris-HCl (pH 7.4), 0.5 mM NADPH, and 0.57 mM 15-keto PGE2. The reaction was conducted at 37° C. in the dark for 10 minutes and terminated by adding 700 μl of a buffer which contained 50 mM potassium hydrogen phthalate, pH 3.0, and 1% Tween 20. 200 μl of a color development reagent, which contained 790 μM indonitrotetrazolium chloride, 60 μM phenazene methosulfate, and 1% Tween 20, was added to oxidize any unreacted NADPH. Absorbance at 490 nm was measured by an ELISA plate reader. A standard curve was generated using reaction buffers containing serially diluted amounts of NADPH. […]
A series of compounds were tested for their inhibitory effects on 15-keto prostaglandin-Δ^13-reductase activity. The inhibition assay was performed following the procedure described above. Different concentrations of 15-keto prostaglandin-Δ^13-reductase inhibitors were added to the reaction mixture and incubated for 2 hours at 37° C.

[2] = system: Female diabetic mice (C57BLKS/J-m+/+Lep^db); test: Blood glucose levels in insulin-resistant, hyperglycemic diabetic mice; assay type: in vivo, mouse; conditions: 25 mg/kg intraperitoneally twice a day for two days
Experimental: The in vivo effect of another inhibitor, 2,2′-dihydroxychalcone, on glucose metabolism was also investigated. Female diabetic mice were obtained from the Jackson Laboratory (C57BLKS/J-m+/+Lep^db, 12 to 13 weeks old). These mice were characterized as insulin-resistant and hyperglycemic. 25 mg/kg of 2,2′-dihydroxychalcone (n=8) or placebo (n=4, final concentration against body fluid: 0.5% DMSO/1% ethanol) was injected intraperitoneally to the mice twice a day for two days. The mice were then fasted from the 48th hour through 52nd hour after the first injection. Blood samples were collected from the retro-orbital sinus before the first injection, and every two hours after two days of treatment. Blood glucose levels were measured by an electrode-type blood glucose meter (HORIBA, AntSense II, Japan).

3T3-L1 cells [3] = test: Glucose transport assay, uptake of 2-deoxy-D-[3H]glucose in differentiated 3T3-L1 cells; assay type: cell-based, mouse
Experimental: 3T3-L1 cells were induced to differentiate in the same manner as described above. A glucose transport assay was performed by measuring uptake of 2-deoxy-D-[3H]glucose as described by Fingar et al. See Fingar et al., Endocrinology 134:728-735. 1.67 μM of the inhibitor or 45 nM of a PPAR agonist, i.e., AVANDIA, was added to the cells. 10 μM cytochalasin-B was used to measure background glucose uptake levels.

[4] = biological target: T1, recombinant mouse PGR-2 protein (Mus musculus, UniProt Q8VDQ1); test: Substrate specificity and kinetics of recombinant PGR-2 (NADPH oxidation, absorbance at 490 nm); assay type: biochemical; conditions: for specific activity as substrate of PGR-2: 15-keto PGE2 replaced with the test substrate, 0.5 mM NADPH, 37° C., 10 minutes
T1 construct: GST (N); made in house; host or cells: E. coli
Experimental: Mouse PGR-2 was recombinantly expressed in E. coli as a GST fusion protein following standard procedures. The recombinant PGR-2 protein thus obtained was used to determine substrate specificity and enzymatic kinetics.
Enzymatic activity was determined as follows. 10 μg of the recombinant mouse PGR-2 protein was incubated at 37° C. in a reaction buffer containing 0.1M Tris-HCl (pH 7.4), 0.5 mM NADPH, and 0.57 mM 15-keto PGE2. The reaction was conducted at 37° C. in the dark for 10 minutes and terminated by adding 700 μl of a buffer which contained 50 mM potassium hydrogen phthalate, pH 3.0, and 1% Tween 20. 200 μl of a color development reagent, which contained 790 μM indonitrotetrazolium chloride, 60 μM phenazene methosulfate, and 1% Tween 20, was added to oxidize any unreacted NADPH. Absorbance at 490 nm was measured by an ELISA plate reader. A standard curve was generated using reaction buffers containing serially diluted amounts of NADPH.
Substrate specificity of PGR-2 was determined using the just-described procedure, except that 15-keto PGE2 was replaced with each of six prostaglandin substrates, each of three downstream metabolites, or leukotriene B4.
Unlike PGR/LTB4DH, PGR-2 used NADPH as a cofactor much more efficiently than NADH.

endogenous PPAR = test: Reporter gene assay of endogenous PPAR activity in differentiating 3T3-L1 cells; assay type: cell-based, mouse; conditions: 3T3-L1 cells induced to differentiate for two days, transfected with reporter gene
Experimental: (§1) The effect of prostaglandin on PPAR-gamma activity in adipocytes was investigated. After treatment with a medium that induces cell differentiation, 3T3-L1 cells were treated from day 2 to 4 during adipogenesis with 14 μM 15-keto PGE2, 13,14-dihydro-15-keto PGE2, 15-keto PGF2α, 13,14-dihydro-15-keto PGF2α, or 4.5 μM of BRL49653, a PPAR-gamma agonist. See Forman et al., Cell (1995) 83:803-812. At day 6, aggregates of lipid droplets were stained with oil-red O for observation. […] After being induced to differentiate for two days, the 3T3-L1 cells were transfected with a reporter gene.

3T3-L1 cells [5] = test: Adipogenesis in 3T3-L1 cells, lipid droplets stained with oil-red O; assay type: cell-based, mouse; conditions: 14 μM, day 2 to 4 during adipogenesis; stained at day 6
Experimental: as §1

aP2 = aP2 expression in 3T3-L1 cells; assay type: cell-based, mouse; conditions: even in the absence of MIX
IRS-2 = IRS-2 protein expression in 3T3-L1 cells; assay type: cell-based, mouse; conditions: in the presence of insulin and dexamethasone
From the text: (§2) Also examined was the ability of 15-keto PGE2 to induce protein expression of adipogenesis-specific, PPAR-gamma target genes, i.e., IRS-1 and -2.

IRS-1 = IRS-1 protein expression in 3T3-L1 cells; assay type: cell-based, mouse
From the text: as §2

[6] = system: PPAR-gamma1 and PPAR-gamma2; test: PPAR-gamma1 and PPAR-gamma2 protein expression in 3T3-L1 cells; assay type: cell-based, mouse; conditions: 15-keto PGE2 and MIX added with insulin and dexamethasone
PPAR-gamma = biological target: T2, PPAR-gamma (Homo sapiens, UniProt P37231); test: Luciferase reporter with PPAR-gamma ligand-binding domain fused to GAL4 DNA-binding domain in 3T3-L1 cells; assay type: cell-based
T2 construct: expressed in transfected cells; host or cells: 3T3-L1 cells
T2 sequence (P37231 238-503 limits assumed): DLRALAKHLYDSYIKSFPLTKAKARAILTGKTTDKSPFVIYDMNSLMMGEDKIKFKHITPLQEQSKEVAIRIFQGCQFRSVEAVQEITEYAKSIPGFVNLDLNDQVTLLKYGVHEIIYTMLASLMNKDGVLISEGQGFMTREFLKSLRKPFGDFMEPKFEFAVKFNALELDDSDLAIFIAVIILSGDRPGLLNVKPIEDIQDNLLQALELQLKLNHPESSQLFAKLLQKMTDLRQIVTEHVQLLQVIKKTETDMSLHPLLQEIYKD
From the text: A luciferase reporter gene was transfected to 3T3-L1 cells together with the ligand-binding domain of PPAR-alpha, PPAR-gamma or PPAR-delta fused to a yeast GAL4 DNA-binding domain.

T1 sequence (Q8VDQ1 whole entry): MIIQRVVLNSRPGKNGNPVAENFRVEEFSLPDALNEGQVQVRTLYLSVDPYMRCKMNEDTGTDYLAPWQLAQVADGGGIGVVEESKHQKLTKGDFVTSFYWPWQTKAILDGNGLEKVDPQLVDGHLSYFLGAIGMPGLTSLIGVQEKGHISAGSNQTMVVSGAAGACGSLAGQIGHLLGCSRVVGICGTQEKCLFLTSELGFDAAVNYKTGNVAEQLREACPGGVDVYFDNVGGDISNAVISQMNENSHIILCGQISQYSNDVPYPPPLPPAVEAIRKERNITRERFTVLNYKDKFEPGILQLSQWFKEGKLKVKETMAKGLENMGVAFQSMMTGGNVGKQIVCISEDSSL

Structure (SMILES) | inhibition of 15-keto prostaglandin-Δ^13-reductase activity [1] | specific activity as substrate of PGR-2 [4] | further results
O=C(/C=C/c1ccccc1O)c1ccc(O)cc1O [2,2′,4′-trihydroxychalcone] | inhibited |  | 
O=C(/C=C/c1ccccc1O)c1cc(O)ccc1O [2,2′,5′-trihydroxychalcone] | inhibited |  | 
O=C(/C=C/c1ccccc1O)c1ccccc1O [2,2′-dihydroxychalcone] | inhibited |  | blood glucose levels compared to placebo controls [2]: significant reduction
O=C(/C=C/c1ccccc1)c1ccc(O)cc1O [2′,4′-dihydroxychalcone] | inhibited |  | 
O=C(/C=C/c1cccc(O)c1)c1ccccc1O [3,2′-dihydroxychalcone] | inhibited |  | 
O=c1c(O)c(-c2cccc(O)c2)oc2ccccc12 [3,3′-dihydroxyflavone] | inhibited |  | 
O=c1oc2ccccc2c(O)c1Cc1c(O)c2ccccc2oc1=O [3,3′-methylene-bis(4-hydroxycoumarin)] | inhibited |  | ability to enhance glucose uptake compared with AVANDIA (3T3-L1 cells [3]; 1.67 μM inhibitor vs 45 nM AVANDIA): comparable to that of AVANDIA; increase of glucose uptake (3T3-L1 cells [3]; 1.67 μM inhibitor, 100 nM insulin, differentiated 3T3-L1 cells): 30 folds
O=C(/C=C/c1ccc(O)cc1)c1ccccc1O [4,2′-dihydroxychalcone] | inhibited |  | 
O=c1cc(O)c2ccccc2o1 [4-hydroxycoumarin] | inhibited |  | 
O=c1cc(-c2ccccc2)oc2cc(O)cc(O)c12 [5,7-dihydroxyflavone] | inhibited |  | 
COc1cc(O)c(C(=O)/C=C/c2cc(Br)ccc2O)c(OC)c1 [5-bromo-2,2′-dihydroxy-4′,6′-dimethoxychalcone] | inhibited |  | 
CCCCC[C@H](O)/C=C/[C@@H]1[C@@H](CC(=O)CCCCC(=O)O)[C@@H](O)C[C@H]1O [6-keto PGF1α] |  | no specific activity was detected | 
CCCCC[C@H](O)/C=C/[C@@H]1[C@@H](C/C=C\CCCC(=O)O)[C@@H](O)C[C@@H]1O [11b-PGF2α] |  | no specific activity was detected | 
CCCCCC(=O)CCC1C(=O)CC(O)C1C/C=C\CCCC(=O)O (stereo not shown) [13,14-dihydro-15-keto PGD2] |  | no specific activity was detected | 
CCCCCC(=O)CC[C@H]1[C@H](O)CC(=O)[C@@H]1C/C=C\CCCC(=O)O [13,14-dihydro-15-keto PGE2, reference compound] |  | no specific activity was detected | endogenous PPAR activity (reporter gene) (endogenous PPAR): failed to increase PPAR activity
CCCCCC(=O)CC[C@@H]1[C@@H](C/C=C\CCCC(=O)O)[C@@H](O)C[C@H]1O [13,14-dihydro-15-keto PGF2α, reference compound] |  | no specific activity was detected | endogenous PPAR activity (reporter gene) (endogenous PPAR): failed to increase PPAR activity
CCCCCC(=O)/C=C/[C@H]1[C@H](O)CC(=O)[C@@H]1CCCCCCC(=O)O [15-keto PGE1] |  | reacted specifically | 
CCCCCC(=O)/C=C/[C@H]1[C@H](O)CC(=O)[C@@H]1C/C=C\CCCC(=O)O [15-keto PGE2] |  |  | adipogenesis (lipid droplets, oil-red O) (3T3-L1 cells [5]): effectively enhanced adipogenesis at a level similar to BRL49653; efficiency of PGR-2 catalyzed conversion into 13,14-dihydro-15-keto prostaglandin ([4]; kinetics studies, recombinant PGR-2): most efficiently; expression of aP2 (aP2): strongly induced; IRS-2 expression (IRS-2): enhanced the expression to a level similar to MIX; amount of IRS-1 protein (IRS-1): did not increase; PPAR-gamma1 and PPAR-gamma2 expression [6]: significantly enhanced; endogenous PPAR activity (reporter gene) (endogenous PPAR): enhanced endogenous PPAR activity significantly; activation of PPAR-gamma (GAL4-LBD luciferase reporter) (PPAR-gamma): activated
CCCCCC(=O)/C=C/[C@@H]1[C@@H](CCCCCCC(=O)O)[C@@H](O)C[C@H]1O [15-keto PGF1α] |  | reacted specifically | 
CCCCCC(=O)/C=C/[C@@H]1[C@@H](C/C=C\CCCC(=O)O)[C@@H](O)C[C@H]1O [15-keto PGF2α] |  | reacted specifically | endogenous PPAR activity (reporter gene) (endogenous PPAR): enhanced endogenous PPAR activity significantly; activation of PPAR-gamma (GAL4-LBD luciferase reporter) (PPAR-gamma): activated
CCCCC[C@H](O)/C=C/[C@@H]1[C@@H](C/C=C\CCCC(=O)O)[C@H](O)C[C@H]1O [PGF2β] |  | no specific activity was detected | 
O=c1c(O)c(-c2ccc(O)cc2)oc2cc(O)cc(O)c12 [kaempferol] | inhibited |  | 
CCCCC/C=C\C[C@@H](O)/C=C/C=C/C=C\[C@@H](O)CCCC(=O)O [leukotriene B4] |  | no specific activity was detected | 
O=c1cc(-c2ccc(O)c(O)c2)oc2cc(O)cc(O)c12 [luteolin] | inhibited |  | 
O.O.O=c1c(O)c(-c2ccc(O)c(O)c2)oc2cc(O)cc(O)c12 [quercetin dehydrate] | inhibited |  | 
CC(=O)CC(c1ccccc1)c1c(O)c2ccccc2oc1=O (stereo not shown) [warfarin, reference compound] | inhibited |  | 
